We go through one compound from patent US12673043B2, “Use of inhibitors of the activator protein 1 (AP-1) for preventing adhesions” (The Board of Trustees of the Leland Stanford Junior …, priority 2020, dated 2026).

In experiment [1] the test system is phospho-JUN. The experiment can be described thus: In vitro T-5224 treatment of freshly isolated mouse adhesion fibroblasts, phospho-flow cytometry. In kind it is cell-based. As to conditions: T-5224 10 μM, 24 hours, versus vehicle control (FIG. 22a). The text has this:
(§1) Recruitment of Human Specimens. Human abdominal adhesion and control specimens were obtained at the Stanford Hospital under Stanford University's IRB approval. Clinical inclusion criteria were as follows: For adhesion specimens—patients must have had at least one prior abdominal surgery, for control specimens—patients must have had no history of prior abdominal surgery. For all patients, surgery must be elective, and there must be no evidence of active inflammation/infection at time of operation. Written, informed consent was obtained from the patient in the pre-op holding area prior to surgery. Tissue was collected in the operating room, placed directly into sterile saline, and kept on ice for transport. Sample preparation and FACS isolation. Adhesion or control tissue from mouse or human specimens was minced on ice. The tissue was then digested for 60 minutes in a 37° C. water bath agitator in 2 mg/mL collagenase (collagenase type IV, ThermoFisher) digest buffer in Medium 199 (HyClone, GE Healthcare) consisting of 5% fetal bovine serum (Gibco FBS, ThermoFisher), DNase I (Worthington), Poloxamer 188 (Cat. P5556-100ML, Sigma), HEPES, and CaCl2. […] Cells were counted and re-suspended in FACS buffer. […]
On the technique in general: Flow cytometry measures light scatter and fluorescence of single cells or particles in a stream.

Experiment [2] deals with phospho-STAT5. Described as above. In kind it is cell-based. As to conditions: T-5224 10 μM, 24 hours, versus vehicle control (FIG. 22a).
Description: as §1

The test system of experiment [3] is phospho-JUN. The experiment can be described thus: Immunofluorescent staining of adhesion tissue after in vivo JUN inhibition. Also on record: species or system mouse. As to conditions: IF staining of adhesion tissue, JUN mice induced with doxycycline, versus vehicle control (FIG. 6e-f). How it is done: (§2) Mouse Model for Adhesions. A similar model for abdominal adhesion formation has been described previously by our laboratory. In brief, mice were anesthetized with inhaled isoflurane (Henry Schein Animal Health,) at a concentration of 1-2% in oxygen at 3 L/min. Ophthalmic ointment (Puralube petrolatum, Dechra Veterinary Products) was applied to the cornea to prevent desiccation. Buprenorphine (Buprenex, Reckitt Benckiser Pharmaceuticals Inc.) was administered subcutaneously prior to the surgery at a dose of 0.1 mg/kg. The mice were placed in the supine position on a clean operating surface. A heating pad was used beneath the surgical field to keep the animals warm throughout the procedure. The abdomens were shaved, and the skin of the abdomen was sterilized with three applications of betadine followed by 70% ethanol. During the procedure, the respiratory rate of the animals was monitored, and the isoflurane was titrated accordingly. A vertical midline skin incision was made in the abdomen with sharp scissors. The underlying abdominal wall was then opened vertically. The cecum was located and exteriorized. The cecal wall was abraded gently with 150-grit sandpaper. […] The animals were monitored during recovery from anesthesia. […]

Experiment [4] relates to PDGFRA. The description is as above. On the set-up: species or system mouse. As to conditions: IF staining of adhesion tissue, JUN mice induced with doxycycline (FIG. 6e). As for the experimental part:
as §2

Experiment [5] concerns abdominal adhesion formation. Description: Mouse model for abdominal adhesions, gross and histologic scoring of adhesion tissue. In kind it is in vivo. The following applies: local application at surgery, JUN and wild-type mice. As for the experimental part: as §2
In experiment [6] the test system is phospho-JUN. Description: In vivo JUN suppression in mouse adhesion model, phospho-flow cytometry of adhesion fibroblasts. The following applies: applied intra-abdominally (10 uM in DMSO, locally at time of adhesion surgery), wild-type and JUN mice, 24 hours, versus vehicle control (FIG. 5d, 22b). How it is done:
(§3) Mouse Model for Adhesions. A similar model for abdominal adhesion formation has been described previously by our laboratory. In brief, mice were anesthetized with inhaled isoflurane (Henry Schein Animal Health,) at a concentration of 1-2% in oxygen at 3 L/min. Ophthalmic ointment (Puralube petrolatum, Dechra Veterinary Products) was applied to the cornea to prevent desiccation. Buprenorphine (Buprenex, Reckitt Benckiser Pharmaceuticals Inc.) was administered subcutaneously prior to the surgery at a dose of 0.1 mg/kg. The mice were placed in the supine position on a clean operating surface. A heating pad was used beneath the surgical field to keep the animals warm throughout the procedure. The abdomens were shaved, and the skin of the abdomen was sterilized with three applications of betadine followed by 70% ethanol. During the procedure, the respiratory rate of the animals was monitored, and the isoflurane was titrated accordingly. A vertical midline skin incision was made in the abdomen with sharp scissors. The underlying abdominal wall was then opened vertically. The cecum was located and exteriorized. The cecal wall was abraded gently with 150-grit sandpaper. The parietal peritoneum along the abdominal wall was similarly abraded with sandpaper and three, single, interrupted, 4-0, silk sutures were placed into the right abdominal sidewall, which served as a nidus for adhesion formation. The cecum was then placed anatomically adjacent to the right abdominal wall. The abdomen was briefly irrigated with warmed, sterile, normal saline. The irrigant was removed by blotting with a gauze sponge. The abdominal wall incision was closed with running 6-0 Monocryl suture, and the skin incision was closed with 6-0 nylon, horizontal mattress sutures. The animals were monitored during recovery from anesthesia. Additional buprenorphine was given every 6-12 hours as needed for pain. For sham surgery, animals were treated in an identical manner; however, incisions were closed without manipulation of abdominal organs.
(§4) In Vivo JUN Induction and Suppression. Doxycycline (2 mg/mL) or T-5224 (Cayman Chem, 10 uM) resuspended in DMSO were applied locally to adhesion sites at the time of adhesion surgery for JUN induction (in JUN mice) or suppression (in JUN and WT mice), respectively. Vehicle only was used for control.
(§5) Recruitment of Human Specimens. Human abdominal adhesion and control specimens were obtained at the Stanford Hospital under Stanford University's IRB approval. Clinical inclusion criteria were as follows: For adhesion specimens—patients must have had at least one prior abdominal surgery, for control specimens—patients must have had no history of prior abdominal surgery. […] Cells were counted and re-suspended in FACS buffer. […]

The test system of experiment [7] is phospho-STAT5. The experiment is described as above. As to conditions: applied intra-abdominally (10 uM in DMSO, locally at time of adhesion surgery), wild-type and JUN mice, 24 hours, versus vehicle control (FIG. 5d, 22b). How it is done: as §3, §4, §5

For the compound `O=C(O)CCc1cc(C(=O)c2ccc(OC3CCCC3)cc2O)ccc1OCc1ccc2c(=O)[nH]oc2c1` [T-5224, 3-[5-(4-Cyclopentyloxy-2-hydroxybenzoyl)-2-[(3-oxo-1,2-benzoxazol-6-yl)methoxy]phenyl]propanoic acid], the figures for the phospho-JUN expression entry in experiment [1], in experiment [6] and in experiment [6] (listed as JUN inhibitor) were “significantly reduced”, “significantly decreased” and “significant decrease”, respectively. Further, the results for the phospho-STAT5 expression entry in experiment [2], in experiment [7] and in experiment [7] (listed as JUN inhibitor) were “significantly reduced”, “significantly decreased” and “significant decrease”, respectively. Further, in experiment [3], the “JUN expression at the tissue level (p-JUN+ cells)” value is given as “decreased”. The “PDGFRA expression in adhesion tissue” value in experiment [4] is on record as “Co-suppression”. In addition, the “adhesions, histologic assessment” value in experiment [5] (H&E and trichrome, versus vehicle control (FIG. 6a-d)) is “significantly thinner and less fibrotic”. For the same compound, the “adhesion formation, gross assessment” value in experiment [5] (POD3, versus vehicle control (FIG. 5e-f)) is “dramatic decrease”.
